# Laboratory results published in patent US12351580B2, “NLRP3 modulators” (Innate Tumor Immunity, Inc., priority 2017, dated 2025).
# Target: T1, hNLRP3 (Homo sapiens, UniProt Q96P20)
# T1 construct: THP-1 cells were purchased from the American Type Culture Collection; host or cells: THP-1 cells, PMA-differentiated
# Test: Measurement of IL-1β production in PMA-differentiated THP-1 cells (hNLRP3 agonist; ELISA, alternative and hTRF procedures)
# Assay type: cell-based
# In short: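 PMA-differentiated THP-1 cells (PMA […] 24 h, 20 μg/ml overnight, or 50 ng/ml overnight, by procedure) replated in RPMI with 2% FBS and exposed to compound (e.g. 100–0.1 μM, 1% DMSO; hTRF format top 10 μM) for 4 h, 2 h, or 2 h respectively. Supernatant IL-1β measured by ELISA, or by hTRF with antibodies diluted 1:40.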
# T1 sequence (Q96P20 whole entry): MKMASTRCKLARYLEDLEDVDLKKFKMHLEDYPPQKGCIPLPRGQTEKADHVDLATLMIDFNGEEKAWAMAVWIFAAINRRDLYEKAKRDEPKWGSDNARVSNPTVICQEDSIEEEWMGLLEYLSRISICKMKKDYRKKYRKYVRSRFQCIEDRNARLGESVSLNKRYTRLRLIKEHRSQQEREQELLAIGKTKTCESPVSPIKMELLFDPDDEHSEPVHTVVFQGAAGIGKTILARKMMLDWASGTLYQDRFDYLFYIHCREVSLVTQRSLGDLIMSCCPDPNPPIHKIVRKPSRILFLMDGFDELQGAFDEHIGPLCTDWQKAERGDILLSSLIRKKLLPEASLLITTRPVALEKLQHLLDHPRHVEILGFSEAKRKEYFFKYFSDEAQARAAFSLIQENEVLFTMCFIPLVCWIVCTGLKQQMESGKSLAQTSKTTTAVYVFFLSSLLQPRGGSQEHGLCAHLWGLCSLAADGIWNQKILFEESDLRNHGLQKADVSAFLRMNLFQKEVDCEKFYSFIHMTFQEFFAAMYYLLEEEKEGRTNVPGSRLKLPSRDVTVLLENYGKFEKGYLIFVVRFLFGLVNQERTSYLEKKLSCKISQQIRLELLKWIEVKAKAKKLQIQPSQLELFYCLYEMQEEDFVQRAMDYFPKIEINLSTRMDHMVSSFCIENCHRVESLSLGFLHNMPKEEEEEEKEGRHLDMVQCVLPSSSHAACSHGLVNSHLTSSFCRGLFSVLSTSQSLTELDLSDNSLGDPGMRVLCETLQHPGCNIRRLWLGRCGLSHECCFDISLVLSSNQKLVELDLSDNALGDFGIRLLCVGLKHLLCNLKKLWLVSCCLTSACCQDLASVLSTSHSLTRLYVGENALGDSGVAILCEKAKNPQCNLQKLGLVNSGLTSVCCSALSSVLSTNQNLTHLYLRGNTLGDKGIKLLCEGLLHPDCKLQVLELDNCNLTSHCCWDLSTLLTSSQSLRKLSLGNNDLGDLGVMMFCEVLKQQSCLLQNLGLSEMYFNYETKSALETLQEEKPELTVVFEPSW
row,Compound,EC50 [µM]
1,CCC(=O)NCc1nc2c(N)nc3cc(-c4cc[nH]n4)ccc3c2[nH]1 [Compound 111],0.72
2,CCN(Cc1nc2c(N)nc3cc(-c4cc[nH]n4)ccc3c2[nH]1)C(=O)c1nccs1 [Compound 114],1.04
3,CN(Cc1nc2c(N)nc3cc(-c4cc[nH]n4)ccc3c2[nH]1)S(C)(=O)=O [Compound 115],0.9
4,CC(c1nc2c(N)nc3cc(-n4cccn4)ccc3c2[nH]1)N1CCCC1=O (stereo not drawn) [Compound 117],1.26
5,CCN(Cc1nc2c(N)nc3cc(-c4cc[nH]n4)ccc3c2[nH]1)C(=O)C1CC1 [Compound 118],1.36
6,"Nc1nc2cc(-c3cccs3)ccc2c2[nH]c(CN3CCCC3=O)nc12 [Compound 309, 1-[(4-amino-7-thiophen-2-yl-1H-imidazo[4,5-c]quinolin-2-yl)methyl]pyrrolidin-2-one]",0.24
7,"N#Cc1ccccc1-c1ccc2c(c1)nc(N)c1nc(CN3CCCC3=O)[nH]c12 [Compound 315, 2-[4-amino-2-[(2-oxopyrrolidin-l-yl)methyl]-1H-imidazo[4,5-c]quinolin-7-yl]benzonitrile]",1.18
8,"Nc1nc2cc(Br)ccc2c2[nH]c(CN3CC(c4ccccc4)CC3=O)nc12 (stereo not drawn) [Compound 316, 1-[(4-amino-7-bromo-1H-imidazo[4,5-c]quinolin-2-yl)methyl]-4-phenylpyrrolidin-2-one]",1.1
9,"COc1ncccc1-c1ccc2c(c1)nc(N)c1nc(CN3CCCC3=O)[nH]c12 [Compound 319, 1-[[4-amino-7-(2-methoxypyridin-3-yl)-1H-imidazo[4,5-c]quinolin-2-yl]methyl]pyrrolidin-2-one]",6.2
10,"Nc1nc2cc(-c3cccnc3Cl)ccc2c2[nH]c(CN3CCCC3=O)nc12 [Compound 320, 1-[[4-amino-7-(2-chloropyridin-3-yl)-1H-imidazo[4,5-c]quinolin-2-yl]methyl]pyrrolidin-2-one]",1.5
11,"Nc1nc2cc(-c3cnccc3Cl)ccc2c2[nH]c(CN3CCCC3=O)nc12 [Compound 321, 1-[[4-amino-7-(4-chloropyridin-3-yl)-1H-imidazo[4,5-c]quinolin-2-yl]methyl]pyrrolidin-2-one]",4.5
12,"Nc1nc2cc(-c3ccc(C(F)(F)F)nc3)ccc2c2[nH]c(CN3CCCC3=O)nc12 [Compound 324, 1-[[4-amino-746-(trifluoromethyppyridin-3-yl]-1H-imidazo[4,5-c]quinolin-2-yl]methyl]pyrrolidin-2-one]",6.7
13,"N#Cc1cncc(-c2ccc3c(c2)nc(N)c2nc(CN4CCCC4=O)[nH]c23)c1 [Compound 326, 5-[4-amino-2-[(2-oxopyrrolidin-l-yl)methyl]-1H-imidazo[4,5-c]quinolin-7-yl]pyridine-3-carbonitrile]",2.7
14,"N#Cc1ccc(-c2ccc3c(c2)nc(N)c2nc(CN4CCCC4=O)[nH]c23)cn1 [Compound 327, 5-[4-amino-2-[(2-oxopyrrolidin-l-yl)methyl]-1H-imidazo[4,5-c]quinolin-7-yl]pyridine-2-carbonitrile]",13
15,"Nc1nc2cc(-c3cncc(Cl)c3)ccc2c2[nH]c(CN3CCCC3=O)nc12 [Compound 328, 1-[[4-amino-7-(5-chloropyridin-3-yl)-1H-imidazo[4,5-c]quinolin-2-yl]methyl]pyrrolidin-2-one]",4.1
16,"Nc1nc2cc(-c3ccc(F)nc3)ccc2c2[nH]c(CN3CCCC3=O)nc12 [Compound 330, 1-[[4-amino-7-(6-fluoropyridin-3-yl)-1H-imidazo[4,5-c]quinolin-2-yl]methyl]pyrrolidin-2-one]",1.6
17,"Nc1nc2cc(-c3cncc(F)c3)ccc2c2[nH]c(CN3CCCC3=O)nc12 [Compound 331, 1-[[4-amino-7-(5-fluoropyridin-3-yl)-1H-imidazo[4,5-c]quinolin-2-yl]methyl]pyrrolidin-2-one]",3.2
18,"Nc1nc2cc(C3CCCCCC3)ccc2c2[nH]c(CN3CCCC3=O)nc12 [Compound 332, 1-[(4-amino-7-cycloheptyl-1H-imidazo[4,5-c]quinolin-2-yl)methyl]pyrrolidin-2-one]",3.3
19,"Nc1nc2cc(-c3cccnc3)ccc2c2[nH]c(CN3CC(c4ccccc4)CC3=O)nc12 (stereo not drawn) [Compound 333, 1-[(4-amino-7-pyridin-3-yl-1H-imidazo[4,5-c]quinolin-2-yl)methyl]-4-phenylpyrrolidin-2-one]",1.9
20,COC(=O)CCCn1c(CN2CCCC2=O)nc2c(N)nc3ccccc3c21 [Compound 335],6.5
21,CN(C)C(=O)CCCn1c(CN2CCCC2=O)nc2c(N)nc3cc(Cl)ccc3c21 [Compound 337],80

row,Compound,EC50 [µM]
1,CN(C)C(=O)CCCn1c(CN2CCCC2=O)nc2c(N)nc3cc(-c4cccnc4)ccc3c21 [Compound 340],50
2,COC(=O)CCCn1c(CN2CCCC2=O)nc2c(N)nc3cc(Br)ccc3c21 [Compound 341],2.1
3,COC(=O)CCCn1c(CN2CCCC2=O)nc2c(N)nc3cc(-c4cccnc4)ccc3c21 [Compound 342],3.3
4,Nc1nc2ccccc2c2[nH]c(CN3CCCCC3=O)nc12 [Compound 346],17.3
5,COC(=O)CCCn1c(CN2CCCCC2=O)nc2c(N)nc3ccccc3c21 [Compound 347],41
6,CN(C)Cc1nc2c(N)nc3cc(-c4cc[nH]n4)ccc3c2[nH]1 [Compound 348],0.89
7,CCN(C)Cc1nc2c(N)nc3cc(-c4cc[nH]n4)ccc3c2[nH]1 [Compound 349],0.6
8,Nc1nc2cc(-n3cccn3)ccc2c2[nH]c(CN3C[C@@H](c4ccccc4)CC3=O)nc12 [Compound 357],0.64
9,Nc1nc2cc(-n3cccn3)ccc2c2[nH]c(CN3C[C@H](c4ccccc4)CC3=O)nc12 [Compound 358],0.63
10,Nc1nc2cc(-c3cc[nH]n3)ccc2c2[nH]c(CN3C(=O)OCC3c3ccccc3)nc12 (stereo not drawn) [Compound 363],5.8
11,Nc1nc2cc(-c3cc[nH]n3)ccc2c2[nH]c(CN3CCOC3=O)nc12 [Compound 365],5
12,CN1CCN(Cc2nc3c(N)nc4cc(-c5cc[nH]n5)ccc4c3[nH]2)C1=O [Compound 368],3.9
13,CN(Cc1nc2c(N)nc3cc(-c4cc[nH]n4)ccc3c2[nH]1)C(=O)CO [Compound 370],4.8
14,CN(Cc1nc2c(N)nc3cc(-c4cc[nH]n4)ccc3c2[nH]1)C(=O)CN [Compound 372],8.3
15,CN(C)C(=O)N(C)Cc1nc2c(N)nc3cc(-c4cc[nH]n4)ccc3c2[nH]1 [Compound 375],2.4
16,CN(Cc1nc2c(N)nc3cc(-c4cc[nH]n4)ccc3c2[nH]1)C(=O)c1ccccc1 [Compound 376],3.6
17,CN(Cc1nc2c(N)nc3cc(-c4cc[nH]n4)ccc3c2[nH]1)C(=O)c1nccs1 [Compound 377],4.3
18,CCN(C=O)Cc1nc2c(N)nc3cc(-c4cc[nH]n4)ccc3c2[nH]1 [Compound 379],2
19,CCN(Cc1nc2c(N)nc3cc(-c4cc[nH]n4)ccc3c2[nH]1)C(=O)CN(C)C [Compound 383],3.6
20,CCN(Cc1nc2c(N)nc3cc(-c4ccn(C)n4)ccc3c2[nH]1)C(=O)OC(C)(C)C [Compound 393],7.11
21,CCN(Cc1nc2c(N)nc3cc(-c4ccsc4)ccc3c2[nH]1)C(=O)OC(C)(C)C [Compound 397],1.05

row,Compound,EC50 [µM]
1,CCNCc1nc2c(N)nc3cc(-n4cccn4)ccc3c2[nH]1 [Compound 398],1.22
2,CCNCc1nc2c(N)nc3cc(-c4cccs4)ccc3c2[nH]1 [Compound 399],1.06
3,CCNCc1nc2c(N)nc3cc(-c4ccsc4)ccc3c2[nH]1 [Compound 400],1.79
4,CNCc1nc2c(N)nc3cc(-c4cc[nH]n4)ccc3c2[nH]1 [Compound 401],1.23
5,CNCc1nc2c(N)nc3cc(-n4cccn4)ccc3c2[nH]1 [Compound 402],1.31
6,COc1ccc(Cn2c(CN3CCN(C)C3=O)nc3c(N)nc4cc(-c5cc[nH]n5)ccc4c32)cc1 [Compound 403],3.66
7,COc1ccc(Cn2c(CN3C(=O)OCC3COCc3ccccc3)nc3c(N)nc4cc(-c5cc[nH]n5)ccc4c32)cc1 (stereo not drawn) [Compound 404],2.5
8,COC(=O)N(C)Cc1nc2c(N)nc3cc(-c4cc[nH]n4)ccc3c2[nH]1 [Compound 405],2.19
9,CCN(Cc1nc2c(N)nc3cc(-c4cc[nH]n4)ccc3c2[nH]1)C(=O)OC [Compound 406],1.37
10,Nc1nc2cc(-c3cc[nH]n3)ccc2c2[nH]c(CN3C[C@@H](c4ccccc4)CC3=O)nc12 [Compound 407],6.55
11,Nc1nc2cc(-c3cc[nH]n3)ccc2c2[nH]c(CN3C[C@H](c4ccccc4)CC3=O)nc12 [Compound 408],5.23
12,COc1ccc(Cn2c(CN3C(=O)OCC3c3ccccc3)nc3c(N)nc4cc(-c5cc[nH]n5)ccc4c32)cc1 (stereo not drawn) [Compound 409],2.36
13,COc1ccc(Cn2c(Cn3cnccc3=O)nc3c(N)nc4cc(-c5cc[nH]n5)ccc4c32)cc1 [Compound 414],3.83
14,CCN(Cc1nc2c(N)nc3cc(-c4cc[nH]n4)ccc3c2[nH]1)C(=O)C1COC1 [Compound 417],7.4
15,"CCN(Cc1nc2c(N)nc3cc(-c4ccsc4)ccc3c2[nH]1)C(C)=O [Compound 419, N-((4-Amino-7-(thiophen-3-yl)-1H-imidazo[4,5-c]quinolin-2-yl)methyl)-N-ethylacetamide]",0.91
16,CCN(Cc1nc2c(N)nc3cc(-c4cc[nH]n4)ccc3c2n1C)C(=O)OC(C)(C)C [Compound 420],0.19
17,CCN(Cc1nc2c(N)nc3cc(-c4ccc(C)cc4)ccc3c2[nH]1)C(C)=O [Compound 422],0.28
18,Nc1nc2cc(-n3cccn3)ccc2c2[nH]c(CN3CCCCC3=O)nc12 [Compound 423],0.62
19,CCN(Cc1nc2c(N)nc3cc(-c4cncc(F)c4)ccc3c2[nH]1)C(C)=O [Compound 427],5
20,CCN(Cc1nc2c(N)nc3cc(Br)ccc3c2n1CC(C)C)C(C)=O [Compound 430],7.45
21,CCN(Cc1nc2c(N)nc3cc(Br)ccc3c2n1CCCOC)C(C)=O [Compound 431],8.67
